Source: ChEMBL document CHEMBL3739307, “Synthesis and multiparametric evaluation of thiadiazoles and oxadiazoles as diacylglycerol acyltransferase type 1 inhibitors” (Bioorg Med Chem Lett, 2016)

Tests used:
[1] = tested on: Liver microsome; assay: Metabolic stability in human liver microsomes; assay type: ADME
[2] = tested on: Liver microsome; assay: Metabolic stability in rat liver microsomes; assay type: ADME
[3] = Metabolic stability in mouse liver microsomes; assay type: ADME
[4] = Permeability across human Caco2 cells; assay type: ADME, cell-based; conditions: Caco-2, read-out: permeability
[5] = Oral bioavailability in rat; assay type: ADME, organism-based; conditions: in vivo
[6] = Cmax in rat liver at 10 mg/kg, po administered as single dose; assay type: ADME, organism-based; set-up: dose 10 mg/kg, route oral
[7] = Cmax in rat plasma at 10 mg/kg, po administered as single dose; assay type: ADME, organism-based; set-up: dose 10 mg/kg, route oral
[8] = Cmax in rat small intestine at 10 mg/kg, po administered as single dose; assay type: ADME, organism-based; set-up: dose 10 mg/kg, route oral
[9] = Cmax in rat heart at 10 mg/kg, po administered as single dose; assay type: ADME, organism-based; set-up: dose 10 mg/kg, route oral
[10] = Cmax in rat brain at 10 mg/kg, po administered as single dose; assay type: ADME, organism-based; set-up: dose 10 mg/kg, route oral
[11] = Half life in rat plasma at 10 mg/kg, po administered as single dose; assay type: ADME, organism-based
[12] = Tmax in rat at 10 mg/kg, po administered as single dose; assay type: ADME, organism-based; conditions: in vivo

SMILES | Stability [1] [%] | Stability [2] [%] | Stability [3] [%] | Papp [4] [×10⁻⁶ cm/s] | bioavailability [5] [%] | Cmax [6] [µM] | Cmax [7] [µM] | Cmax [8] [µM] | Cmax [9] [µM] | Cmax [10] [µM] | half-life [11] [h] | Tmax [12] [h]
O=C(O)C[C@H]1CC[C@H](c2ccc(C(=O)Nc3nnc(Cc4ccccc4)s3)cc2)CC1 | 0 | 11 | 5 | – | – | – | – | – | – | – | – | –
O=C(Nc1nnc(NC2CCCC2)s1)c1ccc(O[C@H]2CC[C@@H](C(=O)O)CC2)cc1 | 2 | 4 | 3 | 0.6 | – | – | – | – | – | – | – | –
O=C(Nc1nc(Cc2ccccc2)no1)c1ccc(O[C@H]2CC[C@@H](C(=O)O)CC2)cc1 | 2 | 53 | 100 | 2.9 | – | – | – | – | – | – | – | –
O=C(O)C[C@H]1CC[C@H](c2ccc(C(=O)Nc3nnc(COC4CCCC4)s3)cc2)CC1 | 3 | 0 | 0 | 10.3 | – | – | – | – | – | – | – | –
O=C(Nc1nc(Cc2cc(F)cc(F)c2)no1)c1ccc(O[C@H]2CC[C@@H](C(=O)O)CC2)cc1 | 1 | 61 | 99 | 0.9 | – | – | – | – | – | – | – | –
O=C(Nc1nnc(Cc2cc(F)cc(F)c2)s1)c1ccc(O[C@H]2CC[C@@H](C(=O)O)CC2)cc1 | 1 | 9 | 42 | 2.9 | 4 | – | – | – | – | – | – | –
O=C(Nc1nnc(COC2CCCC2)s1)c1ccc(O[C@H]2CC[C@@H](C(=O)O)CC2)cc1 | 5 | 1 | 8 | 4.1 | – | – | – | – | – | – | – | –
O=C(O)C[C@H]1CC[C@H](c2ccc(C(=O)Nc3nnc(CCC4CCCO4)s3)cc2)CC1 (stereo not given in full) | 9 | 3 | 8 | 7.2 | – | – | – | – | – | – | – | –
O=C(Nc1nnc(Nc2ccccc2)s1)c1ccc(O[C@H]2CC[C@@H](C(=O)O)CC2)cc1 | 11 | 4 | 8 | 0.6 | – | – | – | – | – | – | – | –
O=C(Nc1nnc(Cc2ccccc2)s1)c1ccc(O[C@H]2CC[C@@H](C(=O)O)CC2)cc1 | 3 | 22 | 27 | 1.5 | – | – | – | – | – | – | – | –
O=C(Nc1nnc(Cc2ccccc2)s1)c1ccc(O[C@H]2CC[C@@H](C(=O)O)CC2)nc1 | 1 | 37 | 23 | 1.1 | – | – | – | – | – | – | – | –
O=C(Nc1nnc(Cc2cc(F)cc(F)c2)s1)c1ccc(O[C@H]2CC[C@H](C(=O)O)CC2)cc1 | 1 | 8 | 9 | 3 | – | – | – | – | – | – | – | –
O=C(Nc1nnc(Cc2cccc(Cl)c2)s1)c1ccc(O[C@H]2CC[C@@H](C(=O)O)CC2)nc1 | 2 | 27 | 56 | 1.7 | – | – | – | – | – | – | – | –
NCCCC[C@H](N)C(=O)O.O=C(Nc1nnc(Cc2cc(F)cc(F)c2)s1)c1ccc(O[C@H]2CC[C@@H](C(=O)O)CC2)cc1 | – | – | – | – | 40 | 248 | 13.2 | 14.3 | 4.2 | 0.16 | 7.4 | 4
